Experiments:
[1] = test system: Normal mice (C57/BL6 strain); test: acute oral glucose tolerance test (OGTT); format: in vivo; settings: OGTT 5 gm/kg
Procedure: Compounds of the present invention were evaluated for their ability to treat diabetes using an acute oral glucose tolerance test (OGTT) as follows: Normal mice (C57/BL6 strain), 6-7 weeks of age, on a normal chow diet, were fasted for 3 hrs. A baseline tail snip blood sample was taken to measure glucose levels (Precision PCx glucose meter, Abbott Laboratories, Abbott Park, Ill.) at the beginning of the experiment. Immediately after this baseline sample, compounds of the present invention (or placebo) were dosed orally. One hour later, a tail snip blood glucose measurement was taken, immediately followed by an oral glucose dose (OGTT, 5 gm/kg). The glucose excursion was followed for 2 hours with samples taken at 10, 20, 30, 60 and 120 minutes post OGTT. These timed glucose data were used to construct a glucose excursion curve, from which an area under the glucose curve (AUGC) was determined. The data reported in Table 2 is the baseline-adjusted area under the glucose curve (δAUGC) for drug and control groups.

[2] = target: DPP8 (Homo sapiens, UniProt Q6V1X1); test: DPP8 inhibitory constant (Table 1 selectivity comparison); format: biochemical
[3] = target: DPP9 (Homo sapiens, UniProt Q86TI2); test: DPP9 inhibitory constant (Table 1 selectivity comparison); format: biochemical
Sequence of DPP9 (Q86TI2 whole entry, species assumed): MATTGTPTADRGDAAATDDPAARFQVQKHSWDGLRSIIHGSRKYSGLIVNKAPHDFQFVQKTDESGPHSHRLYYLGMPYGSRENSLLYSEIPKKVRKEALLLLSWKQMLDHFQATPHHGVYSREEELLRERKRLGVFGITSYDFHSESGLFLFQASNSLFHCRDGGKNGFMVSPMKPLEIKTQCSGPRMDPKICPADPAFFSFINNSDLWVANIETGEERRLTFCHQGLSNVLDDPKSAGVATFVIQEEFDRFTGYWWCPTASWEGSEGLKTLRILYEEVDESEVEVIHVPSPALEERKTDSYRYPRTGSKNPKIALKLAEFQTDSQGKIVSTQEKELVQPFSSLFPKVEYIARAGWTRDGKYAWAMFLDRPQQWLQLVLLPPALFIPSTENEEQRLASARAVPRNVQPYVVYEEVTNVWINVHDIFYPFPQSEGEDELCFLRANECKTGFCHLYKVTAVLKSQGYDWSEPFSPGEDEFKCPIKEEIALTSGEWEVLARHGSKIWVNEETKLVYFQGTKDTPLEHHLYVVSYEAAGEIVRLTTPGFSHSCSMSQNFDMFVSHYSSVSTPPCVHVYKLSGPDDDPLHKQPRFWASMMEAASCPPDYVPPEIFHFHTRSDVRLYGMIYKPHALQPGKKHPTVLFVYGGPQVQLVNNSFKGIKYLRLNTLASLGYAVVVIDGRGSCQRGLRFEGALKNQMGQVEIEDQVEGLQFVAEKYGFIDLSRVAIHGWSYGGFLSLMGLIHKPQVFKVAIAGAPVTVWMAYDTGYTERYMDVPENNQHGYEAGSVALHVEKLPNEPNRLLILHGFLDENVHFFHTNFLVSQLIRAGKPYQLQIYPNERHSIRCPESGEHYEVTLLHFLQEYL

Sequence of DPP8 (Q6V1X1 whole entry, species assumed): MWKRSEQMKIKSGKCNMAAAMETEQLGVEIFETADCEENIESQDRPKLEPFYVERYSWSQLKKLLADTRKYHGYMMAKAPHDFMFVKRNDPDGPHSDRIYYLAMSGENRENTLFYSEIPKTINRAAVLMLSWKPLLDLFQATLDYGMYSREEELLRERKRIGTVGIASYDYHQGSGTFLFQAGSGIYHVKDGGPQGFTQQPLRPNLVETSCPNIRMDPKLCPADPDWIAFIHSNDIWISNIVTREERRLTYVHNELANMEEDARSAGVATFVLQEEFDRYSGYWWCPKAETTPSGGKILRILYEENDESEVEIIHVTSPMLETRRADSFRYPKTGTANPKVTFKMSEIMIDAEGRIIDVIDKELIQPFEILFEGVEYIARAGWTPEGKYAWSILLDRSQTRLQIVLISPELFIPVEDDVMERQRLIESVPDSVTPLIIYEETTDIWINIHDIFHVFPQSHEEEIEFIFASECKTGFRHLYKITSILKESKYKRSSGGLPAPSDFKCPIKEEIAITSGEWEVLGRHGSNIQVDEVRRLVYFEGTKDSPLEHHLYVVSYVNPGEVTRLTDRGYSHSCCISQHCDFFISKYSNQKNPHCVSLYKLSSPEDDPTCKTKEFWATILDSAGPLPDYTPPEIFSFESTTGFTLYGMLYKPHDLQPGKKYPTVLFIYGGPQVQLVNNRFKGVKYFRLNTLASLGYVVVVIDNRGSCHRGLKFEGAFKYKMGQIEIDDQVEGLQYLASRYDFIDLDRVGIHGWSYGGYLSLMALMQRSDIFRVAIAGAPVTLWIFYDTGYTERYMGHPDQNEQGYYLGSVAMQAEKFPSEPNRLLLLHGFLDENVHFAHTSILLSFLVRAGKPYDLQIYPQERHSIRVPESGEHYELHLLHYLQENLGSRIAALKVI

Ki [2]	Ki [3]	SMILES	δ AUGC, change versus Control ([1]; 1.0 mg/kg dosed orally)	δ AUGC, change versus Control ([1]; 3.0 mg/kg dosed orally)
> 30 µM	–	C#C[C@H]1CC[C@@H](C#N)N1C(=O)CN[C@H]1CC[C@H](Oc2ccc(C#N)cn2)CC1 (relative stereo) [Compound 3, (2S,5R)-5-ethynyl-1-{N-(4-trans(5-cyano-pyridin-2-yloxy)cyclohexyl)glycyl}pyrrolidine-2-carbonitrile]	−39%	−54%
> 100 µM	> 100 µM	CC(C)(C)NCC(=O)N1[C@H](C#N)CC[C@@H]1C#N [Compound 9, (2R,5S)-1-[(tert-butylamino)acetyl]pyrrolidine-2,5-dicarbonitrile]	–	–
